Calls of active or inactive are those of the source.
Legend:
INS1 = test: beta cell apoptosis inhibitors, cytokine rescue, dose response, luminescence, retest (AID 449756); assay type: functional, cell-based; details: Rattus norvegicus;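 note: cell death triggered by IL-1 beta plus TNF-alpha plus IFN-gamma mixture; protective hits raise ATP signal compared with cytokine alone wells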
[1] = tested on: Streptococcus sp. 'group A'; test: growth inhibition of control SK(-) GAS strain, dose response, counter-screen for streptokinase expression inhibitor project, luminescence, kanamycin, BacTiterGlo, confirmation (AID 1900); assay type: functional, organism-based
Streptococcus = test: Group A Streptococcus viability loss, dose response, counter-screen for streptokinase expression inhibitor project, luminescence, BacTiterGlo (AID 1915); assay type: functional, organism-based;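 note: potency for reduction of bacterial viability or growth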
Streptokinase A = biological target: T1, Streptokinase A (Streptococcus pyogenes serotype M1, UniProt P10520); test: S. pyogenes streptokinase expression inhibitors, potency, dose response, plasminogen activation absorbance, OD405 (AID 1914); assay type: functional, Streptococcus pyogenes M1 GAS;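 note: secreted streptokinase activity via plasminogen activation per viability signal from cell pellet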
T1 sequence (P10520 whole entry): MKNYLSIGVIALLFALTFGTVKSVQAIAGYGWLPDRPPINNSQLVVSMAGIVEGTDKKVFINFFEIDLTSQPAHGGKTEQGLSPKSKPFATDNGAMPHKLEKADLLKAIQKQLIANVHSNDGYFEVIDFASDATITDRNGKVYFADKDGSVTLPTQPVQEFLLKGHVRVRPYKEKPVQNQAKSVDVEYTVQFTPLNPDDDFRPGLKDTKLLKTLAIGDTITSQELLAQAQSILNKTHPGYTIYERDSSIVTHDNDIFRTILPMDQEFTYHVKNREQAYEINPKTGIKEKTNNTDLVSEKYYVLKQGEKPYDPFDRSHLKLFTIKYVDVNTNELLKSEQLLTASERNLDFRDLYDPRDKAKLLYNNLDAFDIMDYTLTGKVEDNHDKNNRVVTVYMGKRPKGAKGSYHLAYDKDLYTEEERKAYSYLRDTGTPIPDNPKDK

[2] = biological target: T2, Corticotropin-releasing factor receptor 2/Corticotropin-releasing factor-binding protein (Homo sapiens, UniProt P24387+Q13324); test: activators of CRF receptor 2 with binding protein – uHTS hits, confirmation (AID 602473); assay type: functional; details: read-out: EC50_Mean
T2 sequence (Q13324 whole entry): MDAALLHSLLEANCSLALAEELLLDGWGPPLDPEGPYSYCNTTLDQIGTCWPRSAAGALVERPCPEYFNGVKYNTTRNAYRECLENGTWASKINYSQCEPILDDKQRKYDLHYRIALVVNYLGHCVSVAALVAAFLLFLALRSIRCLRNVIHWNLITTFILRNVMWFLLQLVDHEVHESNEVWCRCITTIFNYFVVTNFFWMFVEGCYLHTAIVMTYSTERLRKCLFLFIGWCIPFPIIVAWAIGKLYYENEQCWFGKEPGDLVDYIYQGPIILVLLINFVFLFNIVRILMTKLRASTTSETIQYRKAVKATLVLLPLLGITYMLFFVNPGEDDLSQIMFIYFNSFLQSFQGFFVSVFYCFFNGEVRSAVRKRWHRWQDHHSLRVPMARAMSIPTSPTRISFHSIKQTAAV
T2 sequence (P24387 whole entry): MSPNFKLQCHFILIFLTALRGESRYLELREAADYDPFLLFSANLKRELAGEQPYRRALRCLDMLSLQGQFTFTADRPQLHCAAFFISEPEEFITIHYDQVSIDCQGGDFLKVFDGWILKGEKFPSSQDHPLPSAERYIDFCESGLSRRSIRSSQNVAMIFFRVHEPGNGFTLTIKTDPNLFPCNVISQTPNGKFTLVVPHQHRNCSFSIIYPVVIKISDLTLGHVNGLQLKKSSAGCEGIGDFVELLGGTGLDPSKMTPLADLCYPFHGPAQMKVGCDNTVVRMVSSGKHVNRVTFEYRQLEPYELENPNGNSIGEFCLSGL

[3] = inhibitors of SNCA 5'UTR-driven reporter translation, confirmation, H4 neuroglioma cells, luminescence (AID 1988); assay type: functional, cell-based
[4] = inhibitors of firefly luciferase expression or activity, dose response, H4 neuroglioma cells, luminescence (AID 1990); assay type: functional, cell-based
[5] = Luminescence Cell-Based Dose Response HTS to Identify Inhibitors of 5'UTR Stem-Loop Driven Prion Protein mRNA Translation in H4 Neuroglioblastoma Cells. [Related pubchem assays: 1827 (Project Summary), 1813 (Primary HTS)]; assay type: functional
[6] = Luminescence Cell-Based Dose Retest to Confirm Inhibitors of Cancer Stem Cells. [Related pubchem assays (depositor defined):AID2717, AID2721]; assay type: functional; details: Homo sapiens
Cytochrome P450 3A4 = Cytochrome P450 3A4 (Homo sapiens, UniProt P08684);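 note: CYP3A4 tested as one member of a cytochrome P450 panel screen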
Sequence of Cytochrome P450 3A4 (P08684 whole entry): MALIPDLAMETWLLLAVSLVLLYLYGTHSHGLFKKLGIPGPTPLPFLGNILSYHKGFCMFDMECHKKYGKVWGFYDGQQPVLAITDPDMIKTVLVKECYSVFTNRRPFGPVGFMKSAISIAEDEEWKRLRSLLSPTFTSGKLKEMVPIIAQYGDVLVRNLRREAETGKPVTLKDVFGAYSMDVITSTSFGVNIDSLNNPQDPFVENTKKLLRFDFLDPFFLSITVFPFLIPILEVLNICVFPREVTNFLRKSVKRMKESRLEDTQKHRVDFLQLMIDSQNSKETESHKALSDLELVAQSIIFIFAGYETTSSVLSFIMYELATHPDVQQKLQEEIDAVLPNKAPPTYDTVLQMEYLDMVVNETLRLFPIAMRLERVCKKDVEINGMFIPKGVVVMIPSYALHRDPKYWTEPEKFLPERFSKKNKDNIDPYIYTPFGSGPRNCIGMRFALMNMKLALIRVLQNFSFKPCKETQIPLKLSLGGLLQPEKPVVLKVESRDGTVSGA

Cytochrome P450 2C9 = Cytochrome P450 2C9 (Homo sapiens, UniProt P11712)
Sequence of Cytochrome P450 2C9 (P11712 whole entry): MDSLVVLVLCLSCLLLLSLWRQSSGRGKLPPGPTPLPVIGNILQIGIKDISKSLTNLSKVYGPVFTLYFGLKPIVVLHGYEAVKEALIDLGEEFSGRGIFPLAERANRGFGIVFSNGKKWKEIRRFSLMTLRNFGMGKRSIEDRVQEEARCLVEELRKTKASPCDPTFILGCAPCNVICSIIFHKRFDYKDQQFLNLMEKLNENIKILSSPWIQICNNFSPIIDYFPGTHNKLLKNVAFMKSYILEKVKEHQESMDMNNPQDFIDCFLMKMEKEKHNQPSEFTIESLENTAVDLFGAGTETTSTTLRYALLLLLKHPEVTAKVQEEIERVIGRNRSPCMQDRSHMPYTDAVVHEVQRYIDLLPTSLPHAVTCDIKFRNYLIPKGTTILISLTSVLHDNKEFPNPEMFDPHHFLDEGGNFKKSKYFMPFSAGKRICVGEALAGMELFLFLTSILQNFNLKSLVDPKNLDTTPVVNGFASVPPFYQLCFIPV

Cytochrome P450 2D6 = Cytochrome P450 2D6 (Homo sapiens, UniProt P10635);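 note: CYP2D6 member of a cytochrome P450 panel assay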
Sequence of Cytochrome P450 2D6 (P10635 whole entry): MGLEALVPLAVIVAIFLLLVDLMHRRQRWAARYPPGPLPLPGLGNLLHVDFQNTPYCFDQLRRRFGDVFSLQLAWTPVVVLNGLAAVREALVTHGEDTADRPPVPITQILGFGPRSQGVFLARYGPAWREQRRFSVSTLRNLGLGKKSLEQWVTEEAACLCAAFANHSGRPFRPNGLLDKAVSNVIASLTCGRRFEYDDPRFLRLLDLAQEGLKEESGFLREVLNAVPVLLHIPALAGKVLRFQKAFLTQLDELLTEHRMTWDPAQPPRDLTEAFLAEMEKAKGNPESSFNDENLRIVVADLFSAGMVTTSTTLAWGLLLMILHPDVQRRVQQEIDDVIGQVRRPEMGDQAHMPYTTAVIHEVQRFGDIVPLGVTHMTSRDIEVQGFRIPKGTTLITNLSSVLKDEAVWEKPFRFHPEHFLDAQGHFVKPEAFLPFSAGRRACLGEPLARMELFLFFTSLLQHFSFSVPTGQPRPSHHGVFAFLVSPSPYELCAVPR

[7] = HEp-2 cell cytotoxicity, dose response, cytotoxicity control for RSV inhibitor project, HTS (AID 2410); assay type: functional; details: human respiratory syncytial virus
Cytochrome P450 2C19 = Cytochrome P450 2C19 (Homo sapiens, UniProt P33261); test: Cytochrome panel assay with activity outcomes. Panel member name: p450-cyp2c19 Compounds with AC50 equal or less than 10 uM are considered active; assay type: functional
Sequence of Cytochrome P450 2C19 (P33261 whole entry): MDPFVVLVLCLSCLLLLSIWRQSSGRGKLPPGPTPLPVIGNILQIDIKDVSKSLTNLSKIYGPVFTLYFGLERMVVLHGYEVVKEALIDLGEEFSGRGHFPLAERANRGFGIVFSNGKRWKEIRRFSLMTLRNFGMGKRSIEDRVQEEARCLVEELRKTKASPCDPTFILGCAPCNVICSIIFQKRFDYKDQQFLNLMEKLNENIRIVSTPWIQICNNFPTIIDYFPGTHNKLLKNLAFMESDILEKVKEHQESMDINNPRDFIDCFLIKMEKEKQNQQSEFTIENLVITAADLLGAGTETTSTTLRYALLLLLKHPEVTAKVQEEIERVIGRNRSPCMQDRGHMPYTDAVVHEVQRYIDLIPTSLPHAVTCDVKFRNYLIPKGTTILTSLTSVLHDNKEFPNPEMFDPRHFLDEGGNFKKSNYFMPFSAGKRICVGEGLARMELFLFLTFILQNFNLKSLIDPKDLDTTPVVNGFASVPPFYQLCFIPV

Cytochrome P450 1A2 = biological target: T3, Cytochrome P450 1A2 (Homo sapiens, UniProt P05177);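 note: PubChem cytochrome P450 panel assay, CYP1A2 panel member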
T3 sequence (P05177 whole entry): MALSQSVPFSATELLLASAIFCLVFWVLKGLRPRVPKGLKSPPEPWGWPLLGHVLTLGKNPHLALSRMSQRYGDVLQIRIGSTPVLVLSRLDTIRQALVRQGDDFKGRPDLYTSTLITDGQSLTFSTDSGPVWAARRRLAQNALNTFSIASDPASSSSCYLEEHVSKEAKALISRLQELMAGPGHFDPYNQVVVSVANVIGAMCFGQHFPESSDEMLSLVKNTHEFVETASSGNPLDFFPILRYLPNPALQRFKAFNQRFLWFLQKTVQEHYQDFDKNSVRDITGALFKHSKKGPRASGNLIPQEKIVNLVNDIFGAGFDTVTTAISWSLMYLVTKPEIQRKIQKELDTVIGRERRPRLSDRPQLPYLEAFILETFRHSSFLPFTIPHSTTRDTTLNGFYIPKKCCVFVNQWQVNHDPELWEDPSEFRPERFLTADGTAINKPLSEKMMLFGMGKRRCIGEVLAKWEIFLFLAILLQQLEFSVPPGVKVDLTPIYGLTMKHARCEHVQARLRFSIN

## Cc1ccccc1Nc1c(-c2ccccn2)nc2c(C)cccn12
INS1
  AC50: 6.81 µM (active)
[1]
  EC50: 19.3 µM (active)
Streptococcus
  EC50: > 150 µM (not active)
Streptokinase A
  EC50: > 150 µM (not active)

## COc1ccc(-c2nc3c(c(=O)c4ccccc4n3C)c(=O)n2Cc2ccccc2)cc1
[2]
  EC50: > 53 µM (inactive)

## CCOC(=O)C1CCCCN1C(=O)CCc1c(C)nc2ncnn2c1C (stereo not given)
[3]
  EC50: 14.8 µM (active)
[4]
  EC50: 14.7 µM (active)
[5]
  EC50: > 120 µM (not active)

## Cc1ccc(-c2csc3ncnc(-n4cnc5ccccc54)c23)cc1
[6]
  AC50: 2.81 µM (active)

## Cc1ccc(CCNC(=O)C2CC(c3ccccc3[N+](=O)[O-])=NO2)cc1 (stereo not given)
Cytochrome P450 3A4
  AC50: 1.12 µM (inconclusive)
Cytochrome P450 2C9
  AC50: 39.8 µM (inconclusive)

## CC1=CC(C)(C)N(S(=O)(=O)c2ccc(F)cc2)c2ccc(C)cc21
[6]
  AC50: 1.42 µM (active)

## Cc1nc(NCc2ccco2)c2c3c(sc2n1)CCC3
Cytochrome P450 2D6
  AC50: 25.1 µM (inconclusive)
Cytochrome P450 3A4
  AC50: 15.8 µM (inconclusive)
Cytochrome P450 2C9
  AC50: 12.6 µM (inconclusive)

## O=C(Nc1ccccc1)c1cc([N+](=O)[O-])ccc1Cl
Cytochrome P450 2D6
  AC50: 10 µM (inconclusive)
Cytochrome P450 3A4
  AC50: 25.1 µM (inconclusive)

## CSc1nc2c(c(=O)n1Cc1ccccc1)SC(C)C2 (stereo not given)
[3]
  EC50: 84.8 µM (active)
[4]
  EC50: 25.7 µM (active)
[5]
  EC50: > 120 µM (not active)

## Nc1nonc1-c1nc2ccccc2n1Cc1ccc(F)cc1Cl
Cytochrome P450 3A4
  AC50: 14.1 µM (inconclusive)
Cytochrome P450 2C9
  AC50: 3.55 µM (inconclusive)

## O=c1cc(CN2CCN(c3ccc(F)cc3)CC2)c2cc3c(cc2o1)CCCC3
Cytochrome P450 3A4
  AC50: 14.1 µM (inconclusive)

## S=C(CSc1ccccc1)Nc1cccc2ccccc12
Cytochrome P450 3A4
  AC50: 3.98 µM (inconclusive)

## Cc1onc(-c2c(Cl)cccc2Cl)c1C(=O)Nc1nc(C(C)(C)C)cs1
[3]
  EC50: 12.2 µM (active)
[7]
  CC50: 17 µM (active)
[4]
  EC50: 14.4 µM (active)
[5]
  EC50: 16.7 µM (active)

## COC(=O)C/C=C\[C@@H](C)[C@@H](/C=N\O[C@@H]1O[C@H](COC(C)=O)[C@H](OC(C)=O)[C@H](OC(C)=O)[C@H]1OC(C)=O)OC
Cytochrome P450 2D6
  AC50: 3.98 µM (inconclusive)
Cytochrome P450 3A4
  AC50: 6.31 µM (inconclusive)

## COc1cc(C(=O)O/N=C(\N)Cc2ccc([N+](=O)[O-])cc2)cc(OC)c1OC
[3]
  EC50: 8.41 µM (active)
[4]
  EC50: 23.3 µM (active)
[5]
  EC50: > 120 µM (not active)

## CN(C)c1ncc2nc(-c3cc(F)cc(F)c3)c(=O)n(Cc3cccs3)c2n1
Cytochrome P450 3A4
  AC50: 5.01 µM (inconclusive)
Cytochrome P450 2C19
  AC50: inconclusive
Cytochrome P450 1A2
  AC50: 1.58 µM (inconclusive)

## C[C@@]12CC[C@@H]3c4ccc(O)cc4C[C@H](CCCCCCCCC[S+]([O-])CCCC(F)(F)C(F)(F)F)[C@H]3[C@@H]1CC[C@@H]2O (stereo not given in full)
Cytochrome P450 3A4
  AC50: 1 µM (inconclusive)
Cytochrome P450 1A2
  AC50: 31.6 µM (inconclusive)

## CCOc1cccc(/C=N/NC(=O)c2cc(C3CC3)[nH]n2)c1O
INS1
  AC50: 3.73 µM (active)
[6]
  AC50: 5.71 µM (active)

## Cc1cccc(N/N=C(/C=O)C(=O)c2cccs2)c1
[6]
  AC50: 2.58 µM (active)

## CN(C)C(=O)c1ccc(-c2nccc(NCc3ccccc3)n2)cc1
Cytochrome P450 2D6
  AC50: 39.8 µM (inconclusive)
Cytochrome P450 3A4
  AC50: 20 µM (inconclusive)
Cytochrome P450 1A2
  AC50: 15.8 µM (inconclusive)

## Cc1nn(-c2ccccc2)c(O)c1/C=N/NC(=O)COc1ccccc1[N+](=O)[O-]
INS1
  AC50: 3.4 µM (active)

## CCNC(=S)N/N=C/c1cn(Cc2ccc(F)cc2)c2ccccc12
[6]
  AC50: 24 µM (active)

## Cc1cnc(CNc2nc(-c3ccc(C(=O)N(C)C)cc3)nc3ccccc23)cn1
Cytochrome P450 3A4
  AC50: 15.8 µM (inconclusive)
Cytochrome P450 1A2
  AC50: 25.1 µM (inconclusive)

## Cc1oc(-c2ccccc2Cl)nc1C[S+]([O-])CC(=O)NCCc1ccccc1 (stereo not given)
[3]
  EC50: > 120 µM (not active)
[4]
  EC50: > 120 µM (not active)
[5]
  EC50: > 120 µM (not active)

## CCC1OC23CCCCC2C(C#N)(C(=N)O3)C1(C#N)C#N (stereo not given)
Cytochrome P450 3A4
  AC50: 25.1 µM (inconclusive)
Cytochrome P450 2C9
  AC50: 14.1 µM (inconclusive)

## C[C@@H](CSc1ccc(Br)cc1)CN1CC[C@H](C(C)(C)C)CCC1=O
[6]
  AC50: 0.315 µM (active)

## COc1ccc(-c2sc3cc(OC)c(OC)cc3c2-c2ccc(O)cc2)cc1
[6]
  AC50: 1.58 µM (active)

## CCOC(=O)c1c(C)[nH]c(C(=O)OCC(=O)NC(C)(C)C)c1C
INS1
  AC50: 5.11 µM (active)

## CCN(CC)CC(=O)Nc1sc2c(c1C(=O)c1ccccc1OC)CCC2
[3]
  EC50: > 120 µM (not active)
[4]
  EC50: > 120 µM (not active)
[5]
  EC50: 16.2 µM (active)

## Cc1ccc(N2C(=O)/C(=C\Nc3cc(C)on3)c3ccccc3C2=O)c(C)c1
[3]
  EC50: 12.9 µM (active)
[4]
  EC50: > 120 µM (not active)
[5]
  EC50: 19.6 µM (active)

## Cc1ccc(-c2noc(CN3CCN(C(c4ccccc4)c4ccccc4)CC3)n2)cc1
Cytochrome P450 3A4
  AC50: 35.5 µM (inconclusive)

## CC(=O)NNC(=O)c1csc(Cc2c(Cl)sc3ccc(Cl)cc23)n1
[3]
  EC50: 10.3 µM (active)
[4]
  EC50: 11.5 µM (active)
[5]
  EC50: > 120 µM (not active)

## CCCCNCCOCCOc1ccc(C)cc1[N+](=O)[O-]
Cytochrome P450 3A4
  AC50: 14.1 µM (inconclusive)
Cytochrome P450 2C19; read-out: AC50
  AC50: 39.8 µM (inconclusive)
Cytochrome P450 2C9
  AC50: 3.16 µM (inconclusive)

## COc1ccc(C2=CC(c3ccco3)n3ncnc3N2)cc1 (stereo not given)
[2]
  EC50: 4.53 µM (active)

From ChEMBL document CHEMBL1201862, “PubChem BioAssay data set” (2004)
